Results reported in US20090030086A1, “ANTIMICROBIAL AGENTS” (priority 2005, published 2009).
Converted amounts (≈) assume the structure as drawn.

Assays:
P. acnes NCTC 737 [1] = assay: MBC assay; format: cell-based, Propionibacterium acnes
In short: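 Plates were then checked visually for growth. The MBC is the lowest lethal concentration; cultures were grown on Wilkins-Chalgren Anaerobe Medium at pH 6.0.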

P. acnes NCTC 737 [2] = assay: Disc diffusion assay (DDA); format: cell-based, Propionibacterium acnes; settings: Cutibacterium acnes, NCTC737; P. acnes NCTC 737; unsupplemented agar; 200 μg per disc (2,6-dimethoxy-p-benzoquinone 100 μg); read-out: DDA (diameter of zone of inhibition)
P. acnes PPR-007 = assay: Disc diffusion assay (DDA); format: cell-based, Propionibacterium acnes; settings: resistance Clin, 200 μg per disc
Description: (§1) The Propionibacterium spp organisms were cultured and maintained on Wilkins-Chalgren Anaerobe Medium (agar and broth) at pH 6.0; cultures were incubated anaerobically at 37° C. for 72 hours.
(§2) A sterile paper disc was impregnated with a sample of the test compound and a minimum of 30 minutes allowed for the solvents to evaporate as far as possible. The disc was then placed on an agar plate onto which the test micro-organism had been inoculated. The plate was then incubated under the conditions described above, following which it was examined visually for signs of bacterial growth. If the test compound had antimicrobial activity, a circular zone of no growth would be obtained around the disc. The diameter of this zone of “inhibition” was measured using a ProtoCOL™ automated zone sizer (Synbiosis, Cambridge, UK). In general, a greater diameter and/or area of the zone of inhibition indicates a greater antimicrobial activity in the relevant test compound, although other factors such as test compound mobility through the agar gel may also influence the result.
(§3) The area of the zone of inhibition was calculated from the measured zone diameter (D) using the formula π(D/2)^2.
(§4) For the DDA assays, 200 μg of TBHQ was loaded onto each disc. The solvent used for the TBHQ was ethanol.

P. acnes PRP-002 = assay: Disc diffusion assay (DDA); format: cell-based, Propionibacterium acnes; settings: resistance Tet/MLS, 200 μg per disc
Description: as §1, §2, §3, §4

P. acnes PRP-003 = assay: Disc diffusion assay (DDA); format: cell-based, Propionibacterium acnes; settings: resistance Tet, 200 μg per disc
Description: as §1, §2, §3, §4

P. acnes PRP-017 = assay: Disc diffusion assay (DDA); format: cell-based, Propionibacterium acnes; settings: resistance MLS, 200 μg per disc
Description: as §1, §2, §3, §4

P. acnes PRP-023 = assay: Disc diffusion assay (DDA); format: cell-based, Propionibacterium acnes; settings: resistance MLSK, 200 μg per disc
Description: as §1, §2, §3, §4

P. acnes PRP-026 = assay: Disc diffusion assay (DDA); format: cell-based, Propionibacterium acnes; settings: resistance MLS, 200 μg per disc
Description: as §1, §2, §3, §4

P. acnes PRP-046 = assay: Disc diffusion assay (DDA); format: cell-based, Propionibacterium acnes; settings: resistance None, 200 μg per disc
Description: as §1, §2, §3, §4

P. acnes PRP-053 = assay: Disc diffusion assay (DDA); format: cell-based, Propionibacterium acnes; settings: resistance Tet/MLS, 200 μg per disc
Description: as §1, §2, §3, §4

P. acnes PRP-059 = assay: Disc diffusion assay (DDA); format: cell-based, Propionibacterium acnes; settings: resistance MLS, 200 μg per disc
Description: as §1, §2, §3, §4

P. granulosum PRP-044 = assay: Disc diffusion assay (DDA); format: cell-based; settings: resistance MLS, 200 μg per disc
Description: as §1, §2, §3, §4

P. granulosum PPR-006 = assay: MIC assay; format: cell-based
Description: as §1
This is a standard international method for quantitatively assessing the antimicrobial activity of a compound in a liquid medium. The method used a 96-well microtitre plate, capable of holding about 200 μl of liquid per well. […] The culture media were as described above for the relevant test organisms.
The wells were inoculated with a liquid suspension of freshly grown micro-organism and incubated under the conditions described above. After incubation, the microtitre plate was examined visually (with the aid of a light box) for cloudiness in each well, which would indicate microbial growth. The MIC value was recorded as the lowest concentration of test compound required to inhibit microbial growth, i.e., the lowest concentration for which the liquid in the well remained clear.
The assays were conducted in duplicate and included both negative (culture medium only) and positive (culture medium, diluting solvent and inoculum) controls.
The activity of TBHQ was tested against other Propionibacterium spp strains, including some with known antibiotic resistance. MIC, MBC and DDA assays were carried out as described above for each of the strains.

E. faecalis ATCC 29212 = assay: MBC assay; format: cell-based, Enterococcus faecalis
Description: The staphylococci and enterococci were cultured and maintained on Mueller-Hinton Medium (agar and broth) at pH 7.2; they were incubated aerobically at 37° C. for 24 hours.
(§5) This assay, normally carried out after an MIC assay, determines the minimum concentration of a compound that is lethal to the micro-organism being tested.
(§6) These samples were then individually sub-cultured on non-selective agar medium, under the incubation conditions described above. Following incubation they were examined visually for bacterial growth.
(§7) The activity of TBHQ against three other bacterial strains was investigated using MIC, MBC and DDA assays as described above. For the DDA assays, 200 μg of TBHQ was loaded onto each disc, using ethanol as the solvent.

S. pyogenes ATCC 12344 [3] = assay: MIC assay; format: cell-based; settings: Streptococcus pyogenes, ATCC12344
Source text: 3. Streptococcus pyogenes ATCC 12344—this is a Gram-positive […] bacterium; it is a member of the group A β-haemolytic streptococci which are occasional upper respiratory tract commensals in humans (10% of children, commensal carriage uncommon in adults, its main occurrence is as the agent of tonsillitis). It is clinically significant in the context of skin infections, being a causative agent of cellulitis, necrotising fasciitis, impetigo, erysipelas, wound infections and scarlet fever. Penicillin and erythromycin are the standard treatments for infections involving S. pyogenes. […] S. pyogenes is also a major cause of upper respiratory tract infections. […]
This is a standard international method for quantitatively assessing the antimicrobial activity of a compound in a liquid medium. […]
The wells were inoculated with a liquid suspension of freshly grown micro-organism and incubated under the conditions described above. […] The MIC value was recorded as the lowest concentration of test compound required to inhibit microbial growth, i.e., the lowest concentration for which the liquid in the well remained clear. […]

S. pyogenes ATCC 12344 [4] = assay: MBC assay; format: cell-based, Streptococcus pyogenes
Description: The S. pyogenes strain was cultured and maintained on Mueller-Hinton agar with 5% v/v defibrinated horse blood, and grown in Mueller-Hinton broth supplemented with 5% lysed horse blood (lysed horse blood was prepared as described in the NCCLS M7-A6 Vol. 23 No. 2); cultures were incubated aerobically at 37° C. for 24 hours.
as §5, §6, §7

`CC(C)(C)c1cc(O)ccc1O` [TBHQ, 2-t-butyl hydroquinone] gave an MIC/MBC ratio (P. acnes NCTC 737 [1]; P. acnes NCTC 737) of 0.5, an MBC (P. acnes NCTC 737 [1]; P. acnes NCTC 737 (Table 6), resistance None) of 15.6 mg/L (≈ 93.9 µM) and a zone of inhibition at 200 µg/disc (P. acnes NCTC 737 [2]) of 9.95 mm. It also gave a DDA (P. acnes PPR-007) of 13.43 mm, a DDA (P. acnes PRP-002) of 28.42 mm and a DDA (P. acnes PRP-003) of 38.01 mm. For the same molecule, the DDA (P. acnes PRP-017) was 18.40 mm, the DDA (P. acnes PRP-023) was 23.90 mm and the DDA (P. acnes PRP-026) was 8.18 mm. It also gave a DDA (P. acnes PRP-046) of 17.46 mm, a DDA (P. acnes PRP-053) of 23.49 mm and a DDA (P. acnes PRP-059) of 17.56 mm. For the same molecule, the DDA (P. granulosum PRP-044) was 10.70 mm, the MIC (P. granulosum PPR-006) was 7.8 mg/L (≈ 46.9 µM) and the MIC/MBC ratio (E. faecalis ATCC 29212) was 0.5. The MIC (S. pyogenes ATCC 12344 [3]) was 62.5 to 125 mg/L (≈ 376 to 752 µM), the MIC/MBC ratio (S. pyogenes ATCC 12344 [4]) was 1 and the MBC (S. pyogenes ATCC 12344 [4]; Streptococcus pyogenes, ATCC12344) was 62.5 to 125 mg/L (≈ 376 to 752 µM).
